Assay results reported in ChEMBL document CHEMBL4387728, “Synthetic glycopeptides reveal specific binding pattern and conformational change at O-mannosylated position of α-dystroglycan by POMGnT1 catalyzed GlcNAc modification” (Bioorg Med Chem, 2019).
The source made the active and inactive calls. The rule behind the calls is not given here. Peptide text beside a SMILES is read from it. * marks the point of attachment. X1 = CC(=O)N[C@H]1[C@H](O[C@H]2[C@@H](O)[C@H](O)[C@@H](CO)O[C@@H]2*)O[C@H](CO)[C@@H](O[C@@H]2O[C@H](CO)[C@H](O)[C@H](O[C@]3(C(=O)O)C[C@H](O)[C@@H](NC(C)=O)[C@H]([C@H](O)[C@H](O)CO)O3)[C@H]2O)[C@@H]1O; X2 = CC(=O)N[C@H]1[C@H](O[C@H]2[C@@H](O)[C@H](O)[C@@H](CO)O[C@@H]2*)O[C@H](CO)[C@@H](O[C@@H]2O[C@H](CO)[C@H](O)[C@H](O)[C@H]2O)[C@@H]1O; GlcNAc(β1-2)αMan = CC(=O)N[C@H]1[C@H](O[C@H]2[C@@H](O)[C@H](O)[C@@H](CO)O[C@@H]2*)O[C@H](CO)[C@@H](O)[C@@H]1O; αMan = OC[C@H]1O[C@H](*)[C@@H](O)[C@@H](O)[C@@H]1O; Hexanoyl(5-oxo) = CC(=O)CCCC(=O)*

What was measured:
Homo sapiens [1] = species on record: Homo sapiens; test: Binding affinity to biotin-labeled human recombinant laminin-2 at 10 ug/ml in pH 7.4 Tris buffer by fluorescence microarray method
Datura stramonium = test: Binding affinity to biotin-labeled Datura stramonium agglutinin in pH 7.4 Tris buffer by fluorescence microarray method
Canavalia ensiformis = test: Binding affinity to biotin-labeled Canavalia ensiformis agglutinin in pH 7.4 Tris buffer by fluorescence microarray method
[2] = target: Laminin subunit alpha-1 (Homo sapiens) (UniProt P25391); test: Binding affinity to biotin-labeled human recombinant laminin-1 at 10 ug/ml in pH 5.6 MES buffer by fluorescence microarray method
[3] = target: Laminin subunit alpha-1 (Homo sapiens) (UniProt P25391); test: Binding affinity to biotin-labeled human recombinant laminin-1 at 10 ug/ml in pH 7.4 Tris buffer by fluorescence microarray method
[4] = system: Sambucus racemosa subsp. sieboldiana; test: Binding affinity to biotin-labeled Sambucus sieboldiana agglutinin in pH 7.4 Tris buffer by fluorescence microarray method
[5] = target: Lactotransferrin (Homo sapiens) (UniProt P02788); test: Binding affinity to biotin-labeled lactoferrin (unknown origin) at 10 ug/ml in pH 5.6 MES buffer by fluorescence microarray method
Maackia amurensis = test: Binding affinity to biotin-labeled Maackia amurensis agglutinin in pH 7.4 Tris buffer by fluorescence microarray method
[6] = Binding affinity to biotin-labeled Agaricus bisporus agglutinin in pH 7.4 Tris buffer by fluorescence microarray method
[7] = target: Lactotransferrin (Homo sapiens) (UniProt P02788); test: Binding affinity to biotin-labeled lactoferrin (unknown origin) at 10 ug/ml in pH 7.4 Tris buffer by fluorescence microarray method
Triticum aestivum = test: Binding affinity to biotin-labeled Wheat germ agglutinin in pH 7.4 Tris buffer by fluorescence microarray method
Arachis hypogaea = test: Binding affinity to biotin-labeled Arachis hypogaea agglutinin in pH 7.4 Tris buffer by fluorescence microarray method
Erythrina crista-galli = test: Binding affinity to biotin-labeled Erythrina crista-galli agglutinin in pH 7.4 Tris buffer by fluorescence microarray method
Homo sapiens [8] = species on record: Homo sapiens; test: Binding affinity to biotin-labeled human recombinant laminin-2 at 10 ug/ml in 5.6 MES buffer by fluorescence microarray method

Chain of Laminin subunit alpha-1 (Homo sapiens) (P25391 whole entry): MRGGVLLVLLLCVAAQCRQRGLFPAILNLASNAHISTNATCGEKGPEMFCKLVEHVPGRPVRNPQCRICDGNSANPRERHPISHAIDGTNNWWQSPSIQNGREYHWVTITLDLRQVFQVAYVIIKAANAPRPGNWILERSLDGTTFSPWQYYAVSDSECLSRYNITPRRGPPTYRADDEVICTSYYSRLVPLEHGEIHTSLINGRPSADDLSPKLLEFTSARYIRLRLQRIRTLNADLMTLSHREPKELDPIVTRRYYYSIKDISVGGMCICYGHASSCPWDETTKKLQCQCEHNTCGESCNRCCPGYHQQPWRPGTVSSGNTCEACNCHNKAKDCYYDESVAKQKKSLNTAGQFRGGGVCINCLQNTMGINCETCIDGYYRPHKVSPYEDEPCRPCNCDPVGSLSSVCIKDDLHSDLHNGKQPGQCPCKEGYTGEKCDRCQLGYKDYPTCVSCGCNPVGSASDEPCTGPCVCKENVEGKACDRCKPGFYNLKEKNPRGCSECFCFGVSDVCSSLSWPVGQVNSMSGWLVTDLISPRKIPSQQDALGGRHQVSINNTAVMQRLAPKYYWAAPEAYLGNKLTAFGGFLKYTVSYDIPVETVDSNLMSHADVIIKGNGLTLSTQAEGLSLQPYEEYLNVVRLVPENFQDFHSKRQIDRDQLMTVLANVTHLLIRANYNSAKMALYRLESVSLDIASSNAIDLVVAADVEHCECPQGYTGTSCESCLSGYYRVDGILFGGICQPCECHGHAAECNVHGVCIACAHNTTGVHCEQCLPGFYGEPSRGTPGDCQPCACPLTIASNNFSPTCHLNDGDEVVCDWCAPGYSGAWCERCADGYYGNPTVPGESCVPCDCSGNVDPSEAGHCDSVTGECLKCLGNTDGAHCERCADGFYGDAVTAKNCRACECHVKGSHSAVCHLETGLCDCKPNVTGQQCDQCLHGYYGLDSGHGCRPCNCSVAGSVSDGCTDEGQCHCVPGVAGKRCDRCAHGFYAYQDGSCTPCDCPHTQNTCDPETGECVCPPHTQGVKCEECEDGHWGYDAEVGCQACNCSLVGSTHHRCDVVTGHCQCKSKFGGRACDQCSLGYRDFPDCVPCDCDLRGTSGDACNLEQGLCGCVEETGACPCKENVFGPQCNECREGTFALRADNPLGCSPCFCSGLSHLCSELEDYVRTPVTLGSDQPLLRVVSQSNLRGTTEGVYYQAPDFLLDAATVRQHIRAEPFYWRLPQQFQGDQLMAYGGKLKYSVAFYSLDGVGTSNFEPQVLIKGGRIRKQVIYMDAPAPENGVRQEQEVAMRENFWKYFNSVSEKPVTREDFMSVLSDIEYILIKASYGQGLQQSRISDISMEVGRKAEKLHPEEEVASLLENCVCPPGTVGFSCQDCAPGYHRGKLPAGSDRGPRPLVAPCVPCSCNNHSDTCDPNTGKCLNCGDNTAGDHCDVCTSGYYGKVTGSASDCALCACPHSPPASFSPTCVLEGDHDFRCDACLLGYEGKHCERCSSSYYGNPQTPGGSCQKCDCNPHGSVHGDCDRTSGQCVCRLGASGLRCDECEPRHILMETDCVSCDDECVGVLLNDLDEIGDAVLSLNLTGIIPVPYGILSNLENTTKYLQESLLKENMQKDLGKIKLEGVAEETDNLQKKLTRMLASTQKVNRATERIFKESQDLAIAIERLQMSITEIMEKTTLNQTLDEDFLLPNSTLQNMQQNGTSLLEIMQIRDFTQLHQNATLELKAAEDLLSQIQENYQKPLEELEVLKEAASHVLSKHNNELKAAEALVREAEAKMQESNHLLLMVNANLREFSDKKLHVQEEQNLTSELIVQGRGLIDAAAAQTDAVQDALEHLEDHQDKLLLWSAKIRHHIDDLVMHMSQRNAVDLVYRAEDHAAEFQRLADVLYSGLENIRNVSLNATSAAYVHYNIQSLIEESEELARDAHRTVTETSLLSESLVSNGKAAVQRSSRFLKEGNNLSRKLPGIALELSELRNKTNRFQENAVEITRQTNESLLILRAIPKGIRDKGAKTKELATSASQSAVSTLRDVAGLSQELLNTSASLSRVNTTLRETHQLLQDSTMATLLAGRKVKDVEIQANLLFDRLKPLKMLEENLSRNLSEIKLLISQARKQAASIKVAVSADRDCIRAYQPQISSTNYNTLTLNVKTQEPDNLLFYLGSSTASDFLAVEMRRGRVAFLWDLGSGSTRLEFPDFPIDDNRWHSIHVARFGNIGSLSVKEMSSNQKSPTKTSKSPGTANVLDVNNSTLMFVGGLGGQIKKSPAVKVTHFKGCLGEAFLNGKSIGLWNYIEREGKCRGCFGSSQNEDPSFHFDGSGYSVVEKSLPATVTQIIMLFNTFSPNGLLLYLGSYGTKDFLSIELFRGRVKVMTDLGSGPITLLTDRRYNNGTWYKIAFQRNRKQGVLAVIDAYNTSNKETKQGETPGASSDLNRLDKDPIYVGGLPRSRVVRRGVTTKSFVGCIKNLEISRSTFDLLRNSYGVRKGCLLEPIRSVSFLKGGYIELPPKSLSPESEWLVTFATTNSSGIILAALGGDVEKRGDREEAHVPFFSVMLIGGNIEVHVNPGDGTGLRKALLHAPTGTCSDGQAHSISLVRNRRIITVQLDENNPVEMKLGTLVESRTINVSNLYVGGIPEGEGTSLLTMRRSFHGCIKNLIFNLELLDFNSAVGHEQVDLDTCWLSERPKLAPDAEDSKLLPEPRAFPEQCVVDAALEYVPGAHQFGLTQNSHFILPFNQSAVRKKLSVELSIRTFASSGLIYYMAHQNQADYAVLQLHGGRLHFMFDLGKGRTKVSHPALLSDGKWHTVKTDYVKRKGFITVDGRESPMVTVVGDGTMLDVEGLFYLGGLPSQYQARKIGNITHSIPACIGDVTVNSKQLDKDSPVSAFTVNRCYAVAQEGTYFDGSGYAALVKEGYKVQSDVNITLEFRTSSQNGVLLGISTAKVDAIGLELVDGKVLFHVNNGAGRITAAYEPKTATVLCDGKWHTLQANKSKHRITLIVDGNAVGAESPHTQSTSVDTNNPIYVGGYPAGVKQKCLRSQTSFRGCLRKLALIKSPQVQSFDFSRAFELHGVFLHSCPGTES
Chain of Lactotransferrin (Homo sapiens) (P02788 whole entry): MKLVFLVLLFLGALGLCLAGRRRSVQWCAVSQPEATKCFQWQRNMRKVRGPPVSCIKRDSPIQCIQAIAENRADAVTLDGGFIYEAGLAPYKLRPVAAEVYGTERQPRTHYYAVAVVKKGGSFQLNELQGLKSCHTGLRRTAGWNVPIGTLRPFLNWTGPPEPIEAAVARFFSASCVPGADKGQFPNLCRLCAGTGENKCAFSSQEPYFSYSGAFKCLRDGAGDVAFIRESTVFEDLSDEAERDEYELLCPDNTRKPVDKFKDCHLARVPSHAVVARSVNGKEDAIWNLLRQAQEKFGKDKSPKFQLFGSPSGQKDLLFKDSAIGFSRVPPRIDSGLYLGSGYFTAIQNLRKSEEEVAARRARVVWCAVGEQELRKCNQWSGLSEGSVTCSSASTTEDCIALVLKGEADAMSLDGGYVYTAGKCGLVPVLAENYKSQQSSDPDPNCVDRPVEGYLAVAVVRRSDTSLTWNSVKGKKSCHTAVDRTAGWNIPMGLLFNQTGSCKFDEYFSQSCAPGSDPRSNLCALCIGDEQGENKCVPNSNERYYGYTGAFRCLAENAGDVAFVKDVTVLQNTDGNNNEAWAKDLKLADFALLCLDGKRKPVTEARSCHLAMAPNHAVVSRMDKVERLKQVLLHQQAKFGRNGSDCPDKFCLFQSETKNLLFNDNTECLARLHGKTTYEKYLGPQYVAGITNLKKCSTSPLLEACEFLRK

SMILES | Activity (Homo sapiens [1]) | Activity (Datura stramonium) | Activity (Canavalia ensiformis) | Activity [2] | Activity [3] | Activity [4] | Activity [5] | Activity (Maackia amurensis) | Activity [6] | Activity [7] | Activity (Triticum aestivum) | Activity (Arachis hypogaea) | Activity (Erythrina crista-galli) | Activity (Homo sapiens [8])
CC[C@H](C)[C@H](NC(=O)[C@H](C)NC(=O)CNC(=O)[C@H](CCCNC(=N)N)NC(=O)[C@@H](NC(=O)CCCC(C)=O)[C@@H](C)O)C(=O)N[C@H](C(=O)N[C@@H](CCC(N)=O)C(=O)N[C@H](C(=O)N1CCC[C@H]1C(=O)N[C@H](C(=O)N[C@@H](CC(C)C)C(=O)NCC(=O)N1CCC[C@H]1C(=O)N[C@H](C(=O)N[C@@H](CCC(N)=O)C(=O)N1CCC[C@H]1C(=O)N[C@H](C(=O)N[C@@H](CCCNC(=N)N)C(=O)N[C@H](C(N)=O)C(C)C)[C@@H](C)O[C@H]1O[C@H](CO)[C@@H](O)[C@H](O)[C@@H]1O[C@@H]1O[C@H](CO)[C@@H](O[C@@H]2O[C@H](CO)[C@H](O)[C@H](O)[C@H]2O)[C@H](O)[C@H]1NC(C)=O)[C@@H](C)CC)[C@@H](C)O[C@H]1O[C@H](CO)[C@@H](O)[C@H](O)[C@@H]1O[C@@H]1O[C@H](CO)[C@@H](O[C@@H]2O[C@H](CO)[C@H](O)[C@H](O[C@]3(C(=O)O)C[C@H](O)[C@@H](NC(C)=O)[C@H]([C@H](O)[C@H](O)CO)O3)[C@H]2O)[C@H](O)[C@H]1NC(C)=O)[C@@H](C)O)[C@@H](C)CC ({Hexanoyl(5-oxo)}-TRGAIIQTPT(X1)LGPIQPT(X2)RV-NH2) | inactive | inactive | Active | Active | Active | Active | Active | inactive | Active | inactive | Active | Active | Active | Active
CC[C@H](C)[C@H](NC(=O)[C@H](C)NC(=O)CNC(=O)[C@H](CCCNC(=N)N)NC(=O)[C@@H](NC(=O)CCCC(C)=O)[C@@H](C)O)C(=O)N[C@H](C(=O)N[C@@H](CCC(N)=O)C(=O)N[C@H](C(=O)N1CCC[C@H]1C(=O)N[C@H](C(=O)N[C@@H](CC(C)C)C(=O)NCC(=O)N1CCC[C@H]1C(=O)N[C@H](C(=O)N[C@@H](CCC(N)=O)C(=O)N1CCC[C@H]1C(=O)N[C@H](C(=O)N[C@@H](CCCNC(=N)N)C(=O)N[C@H](C(N)=O)C(C)C)[C@@H](C)O[C@H]1O[C@H](CO)[C@@H](O)[C@H](O)[C@@H]1O)[C@@H](C)CC)[C@@H](C)O[C@H]1O[C@H](CO)[C@@H](O)[C@H](O)[C@@H]1O[C@@H]1O[C@H](CO)[C@@H](O[C@@H]2O[C@H](CO)[C@H](O)[C@H](O[C@]3(C(=O)O)C[C@H](O)[C@@H](NC(C)=O)[C@H]([C@H](O)[C@H](O)CO)O3)[C@H]2O)[C@H](O)[C@H]1NC(C)=O)[C@@H](C)O)[C@@H](C)CC ({Hexanoyl(5-oxo)}-TRGAIIQTPT(X1)LGPIQPT(αMan)RV-NH2) | inactive | inactive | Active | Active | Active | Active | Active | inactive | Active | inactive | Active | Active | Active | Active
CC[C@H](C)[C@H](NC(=O)[C@H](C)NC(=O)CNC(=O)[C@H](CCCNC(=N)N)NC(=O)[C@@H](NC(=O)CCCC(C)=O)[C@@H](C)O)C(=O)N[C@H](C(=O)N[C@@H](CCC(N)=O)C(=O)N[C@H](C(=O)N1CCC[C@H]1C(=O)N[C@H](C(=O)N[C@@H](CC(C)C)C(=O)NCC(=O)N1CCC[C@H]1C(=O)N[C@H](C(=O)N[C@@H](CCC(N)=O)C(=O)N1CCC[C@H]1C(=O)N[C@H](C(=O)N[C@@H](CCCNC(=N)N)C(=O)N[C@H](C(N)=O)C(C)C)[C@@H](C)O)[C@@H](C)CC)[C@@H](C)O[C@H]1O[C@H](CO)[C@@H](O)[C@H](O)[C@@H]1O[C@@H]1O[C@H](CO)[C@@H](O[C@@H]2O[C@H](CO)[C@H](O)[C@H](O[C@]3(C(=O)O)C[C@H](O)[C@@H](NC(C)=O)[C@H]([C@H](O)[C@H](O)CO)O3)[C@H]2O)[C@H](O)[C@H]1NC(C)=O)[C@@H](C)O)[C@@H](C)CC ({Hexanoyl(5-oxo)}-TRGAIIQTPT(X1)LGPIQPTRV-NH2) | inactive | inactive | Active | Active | Active | Active | Active | inactive | Active | inactive | Active | Active | Active | Active
CC[C@H](C)[C@H](NC(=O)[C@H](C)NC(=O)CNC(=O)[C@H](CCCNC(=N)N)NC(=O)[C@@H](NC(=O)CCCC(C)=O)[C@@H](C)O)C(=O)N[C@H](C(=O)N[C@@H](CCC(N)=O)C(=O)N[C@H](C(=O)N1CCC[C@H]1C(=O)N[C@H](C(=O)N[C@@H](CC(C)C)C(=O)NCC(=O)N1CCC[C@H]1C(=O)N[C@H](C(=O)N[C@@H](CCC(N)=O)C(=O)N1CCC[C@H]1C(=O)N[C@H](C(=O)N[C@@H](CCCNC(=N)N)C(=O)N[C@H](C(N)=O)C(C)C)[C@@H](C)O)[C@@H](C)CC)[C@@H](C)O[C@H]1O[C@H](CO)[C@@H](O)[C@H](O)[C@@H]1O[C@@H]1O[C@H](CO)[C@@H](O[C@@H]2O[C@H](CO)[C@H](O)[C@H](O)[C@H]2O)[C@H](O)[C@H]1NC(C)=O)[C@@H](C)O)[C@@H](C)CC ({Hexanoyl(5-oxo)}-TRGAIIQTPT(X2)LGPIQPTRV-NH2) | inactive | inactive | Active | Active | Active | Active | Active | inactive | Active | inactive | Active | Active | Active | Active

Now from value to compound:

Activity (Homo sapiens [1]) | Activity (Datura stramonium) | Activity (Canavalia ensiformis) | Activity [2] | Activity [3] | Activity [4] | Activity [5] | Activity (Maackia amurensis) | Activity [6] | Activity [7] | Activity (Triticum aestivum) | Activity (Arachis hypogaea) | Activity (Erythrina crista-galli) | Activity (Homo sapiens [8]) | SMILES
inactive | inactive | Active | Active | Active | Active | Active | inactive | Active | inactive | Active | Active | Active | Active | CC[C@H](C)[C@H](NC(=O)[C@H](C)NC(=O)CNC(=O)[C@H](CCCNC(=N)N)NC(=O)[C@@H](NC(=O)CCCC(C)=O)[C@@H](C)O)C(=O)N[C@H](C(=O)N[C@@H](CCC(N)=O)C(=O)N[C@H](C(=O)N1CCC[C@H]1C(=O)N[C@H](C(=O)N[C@@H](CC(C)C)C(=O)NCC(=O)N1CCC[C@H]1C(=O)N[C@H](C(=O)N[C@@H](CCC(N)=O)C(=O)N1CCC[C@H]1C(=O)N[C@H](C(=O)N[C@@H](CCCNC(=N)N)C(=O)N[C@H](C(N)=O)C(C)C)[C@@H](C)O[C@H]1O[C@H](CO)[C@@H](O)[C@H](O)[C@@H]1O[C@@H]1O[C@H](CO)[C@@H](O)[C@H](O)[C@H]1NC(C)=O)[C@@H](C)CC)[C@@H](C)O[C@H]1O[C@H](CO)[C@@H](O)[C@H](O)[C@@H]1O[C@@H]1O[C@H](CO)[C@@H](O[C@@H]2O[C@H](CO)[C@H](O)[C@H](O)[C@H]2O)[C@H](O)[C@H]1NC(C)=O)[C@@H](C)O)[C@@H](C)CC ({Hexanoyl(5-oxo)}-TRGAIIQTPT(X2)LGPIQPT(GlcNAc(β1-2)αMan)RV-NH2)
inactive | inactive | Active | Active | Active | Active | Active | inactive | Active | inactive | Active | Active | Active | Active | CC[C@H](C)[C@H](NC(=O)[C@H](C)NC(=O)CNC(=O)[C@H](CCCNC(=N)N)NC(=O)[C@@H](NC(=O)CCCC(C)=O)[C@@H](C)O)C(=O)N[C@H](C(=O)N[C@@H](CCC(N)=O)C(=O)N[C@H](C(=O)N1CCC[C@H]1C(=O)N[C@H](C(=O)N[C@@H](CC(C)C)C(=O)NCC(=O)N1CCC[C@H]1C(=O)N[C@H](C(=O)N[C@@H](CCC(N)=O)C(=O)N1CCC[C@H]1C(=O)N[C@H](C(=O)N[C@@H](CCCNC(=N)N)C(=O)N[C@H](C(N)=O)C(C)C)[C@@H](C)O[C@H]1O[C@H](CO)[C@@H](O)[C@H](O)[C@@H]1O[C@@H]1O[C@H](CO)[C@@H](O[C@@H]2O[C@H](CO)[C@H](O)[C@H](O)[C@H]2O)[C@H](O)[C@H]1NC(C)=O)[C@@H](C)CC)[C@@H](C)O[C@H]1O[C@H](CO)[C@@H](O)[C@H](O)[C@@H]1O[C@@H]1O[C@H](CO)[C@@H](O[C@@H]2O[C@H](CO)[C@H](O)[C@H](O)[C@H]2O)[C@H](O)[C@H]1NC(C)=O)[C@@H](C)O)[C@@H](C)CC ({Hexanoyl(5-oxo)}-TRGAIIQTPT(X2)LGPIQPT(X2)RV-NH2)
